Experimental data reported in PMC3344907, “Inhibitory Effects and Underlying Mechanism of 7-Hydroxyflavone Phosphate Ester in HeLa Cells” (PLoS ONE, 2012).
pIC50: −log10 of the molar value.

Assays:
[1] = target: T1, CaM-activated PDE1 (Ca2+-CaM-phosphodiesterase 1); assay: PDE-Glo luminescence assay of CaM-activated PDE; supported by fluorescence quenching of the CaM-Ca2+-PDE system; format: biochemical, Bos taurus
T1 construct: bovine brain PDE (Sigma-Aldrich P9529); with calmodulin (CaM)

[2] = target: T1, CaM-activated PDE1 (Ca2+-CaM-phosphodiesterase 1); assay: PDE-Glo luminescence assay of CaM-activated PDE; format: biochemical, Bos taurus

CCOP(=O)(OCC)Oc1ccc2c(=O)cc(-c3ccccc3)oc2c1 [FP, diethyl flavon-7-yl phosphate]
pIC50 [1]: 4.65

O=c1cc(-c2ccccc2)oc2cc(O)ccc12 [HF, 7-hydroxyflavone]
pIC50 [2]: 4.12
